Laboratory results: US8952024B2, “Herbicidal pyrimidone derivatives” (E I du Pont de Nemours and Company, priority 2009, dated 2015)

Experiments:
Test in all cases: Test B pre-/postemergence plant response
Type in all cases: in vivo
[1] = test system: bermudagrass (Cynodon dactylon)
Procedure, shortened: (§1)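 Each species received compound formulated in non-phytotoxic solvent with surfactant, either at planting into a loam and sand blend or as a foliar spray once plants reached 2 to 18 cm in peat-based medium. Plants stayed in the greenhouse 13 to 15 days before visual evaluation against controls, scored 0 (no effect) to 100 (complete control).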

[2] = test system: woolly cupgrass (Eriochloa villosa)
Procedure, shortened: as §1

kochia (Kochia scoparia) = conditions: Postemergence
Procedure, shortened: as §1

[3] = test system: large crabgrass (Digitaria sanguinalis)
Procedure, shortened: as §1

[4] = test system: downy bromegrass (Bromus tectorum)
Procedure, shortened: as §1

[5] = test system: blackgrass (Alopecurus myosuroides)
Procedure, shortened: as §1

[6] = test system: Surinam grass (Brachiaria decumbens)
Procedure, shortened: as §1

wild oat (Avena fatua) = test system: wild oat (Avena fatua)
Procedure, shortened: as §1

[7] = test system: Italian ryegrass (Lolium multiflorum)
Procedure, shortened: as §1

[8] = test system: ragweed (common ragweed, Ambrosia elatior)
Procedure, shortened: as §1

[9] = test system: morningglory (Ipomoea coccinea)
Procedure, shortened: as §1

[10] = test system: wheat (Triticum aestivum)
Procedure, shortened: as §1

[11] = Postemergence, 31 g ai/ha, 0 to 100 scale (0 no effect, 100 complete control)
[12] = Postemergence, 62 g ai/ha, scale 0 to 100 (0 no effect, 100 complete control)
[13] = Postemergence, 125 g ai/ha, scale 0 (no effect) to 100 (complete control), 13 to 15 days
[14] = Postemergence, 250 g ai/ha, scale 0 to 100 (0 no effect, 100 complete control), 13 to 15 days
[15] = Preemergence, 31 g ai/ha, scale 0 to 100 (0 no effect, 100 complete control)
[16] = Preemergence, 62 g ai/ha, scale 0 to 100 (0 no effect, 100 complete control)
[17] = Preemergence, 125 g ai/ha, scale 0 to 100, 0 no effect, 100 complete control
[18] = Preemergence, 250 g ai/ha, 0 to 100 scale

Structure (SMILES): CCc1ccccc1-n1c(-c2ccccc2)ncc(C(=O)C2=C(O)CCCC2=O)c1=O [Compound 255]
- Plant response rating, Bermudagrass [1, 11]: 90
- Plant response rating, Bermudagrass [1, 12]: 95
- Plant response rating, Bermudagrass [1, 13]: 95
- Plant response rating, Bermudagrass [1, 14]: 100
- Plant response rating, Bermudagrass [1, 15]: 100
- Plant response rating, Bermudagrass [1, 16]: 100
- Plant response rating, Bermudagrass [1, 17]: 100
- Bermudagrass plant response rating ([1]; Preemergence, 250 g ai/ha, 0 to 100 scale, 0 no effect, 100 complete control): 100
- Plant response rating, Cupgrass, Woolly [2, 11]: 85
- Plant response rating, Cupgrass, Woolly [2, 12]: 95
- Plant response rating, Cupgrass, Woolly [2, 13]: 95
- Plant response rating, Cupgrass, Woolly [2, 14]: 98
- Plant response rating, Cupgrass, Woolly [2, 15]: 0
- Plant response rating, Cupgrass, Woolly [2, 16]: 10
- Plant response rating, Cupgrass, Woolly [2, 17]: 75
- Cupgrass, Woolly plant response rating [2, 18]: 90
- Plant response rating, Kochia (kochia (Kochia scoparia); 31 g ai/ha, 0 to 100 scale (0 no effect, 100 complete control)): 10
- Plant response rating, Kochia (kochia (Kochia scoparia); 62 g ai/ha, scale 0 to 100 (0 no effect, 100 complete control)): 15
- Plant response rating, Kochia (kochia (Kochia scoparia); 125 g ai/ha, scale 0 (no effect) to 100 (complete control), 13 to 15 days): 15
- Plant response rating, Kochia (kochia (Kochia scoparia); 250 g ai/ha, scale 0 to 100 (0 no effect, 100 complete control), 13 to 15 days): 65
- Plant response rating, Crabgrass, Large [3, 11]: 85
- Plant response rating, Crabgrass, Large [3, 12]: 85
- Plant response rating, Crabgrass, Large [3, 13]: 90
- Plant response rating, Crabgrass, Large [3, 14]: 95
- Plant response rating, Crabgrass, Large [3, 15]: 80
- Plant response rating, Crabgrass, Large [3, 16]: 95
- Plant response rating, Crabgrass, Large [3, 17]: 100
- Crabgrass, Large plant response rating [3, 18]: 100
- Plant response rating, Bromegrass, Downy [4, 11]: 50
- Plant response rating, Bromegrass, Downy [4, 12]: 60
- Plant response rating, Bromegrass, Downy [4, 13]: 80
- Plant response rating, Bromegrass, Downy [4, 14]: 85
- Plant response rating, Bromegrass, Downy [4, 15]: 0
- Plant response rating, Bromegrass, Downy [4, 16]: 0
- Plant response rating, Bromegrass, Downy [4, 17]: 0
- Bromegrass, Downy plant response rating [4, 18]: 40
- Plant response rating, Blackgrass [5, 11]: 5
- Plant response rating, Blackgrass [5, 12]: 5
- Plant response rating, Blackgrass [5, 13]: 10
- Plant response rating, Blackgrass [5, 14]: 60
- Plant response rating, Blackgrass [5, 15]: 0
- Plant response rating, Blackgrass [5, 16]: 20
- Plant response rating, Blackgrass [5, 17]: 40
- Blackgrass plant response rating [5, 18]: 60
- Plant response rating, Surinam Grass [6, 11]: 80
- Plant response rating, Surinam Grass [6, 12]: 80
- Plant response rating, Surinam Grass [6, 13]: 90
- Plant response rating, Surinam Grass [6, 14]: 90
- Plant response rating, Surinam Grass [6, 15]: 65
- Plant response rating, Surinam Grass [6, 16]: 85
- Plant response rating, Surinam Grass [6, 17]: 95
- Surinam Grass plant response rating [6, 18]: 100
- Plant response rating, Oat, Wild (wild oat (Avena fatua); [11]): 65
- Plant response rating, Oat, Wild (wild oat (Avena fatua); [12]): 80
- Plant response rating, Oat, Wild (wild oat (Avena fatua); [13]): 85
- Plant response rating, Oat, Wild (wild oat (Avena fatua); [14]): 90
- Plant response rating, Oat, Wild (wild oat (Avena fatua); [15]): 0
- Plant response rating, Oat, Wild (wild oat (Avena fatua); [16]): 0
- Plant response rating, Oat, Wild (wild oat (Avena fatua); [17]): 60
- Oat, Wild plant response rating (wild oat (Avena fatua); [18]): 90
- Plant response rating, Ryegrass, Italian [7, 11]: 10
- Plant response rating, Ryegrass, Italian [7, 12]: 30
- Plant response rating, Ryegrass, Italian [7, 13]: 30
- Plant response rating, Ryegrass, Italian [7, 14]: 80
- Plant response rating, Ryegrass, Italian [7, 15]: 0
- Plant response rating, Ryegrass, Italian [7, 16]: 0
- Plant response rating, Ryegrass, Italian [7, 17]: 10
- Ryegrass, Italian plant response rating [7, 18]: 30
- Plant response rating, Ragweed [8, 11]: 50
- Plant response rating, Ragweed [8, 12]: 90
- Plant response rating, Ragweed [8, 13]: 95
- Plant response rating, Ragweed [8, 14]: 95
- Plant response rating, Ragweed [8, 15]: 65
- Plant response rating, Ragweed [8, 16]: 75
- Plant response rating, Ragweed [8, 17]: 85
- Ragweed plant response rating [8, 18]: 100
- Plant response rating, Morningglory [9, 11]: 75
- Plant response rating, Morningglory [9, 12]: 85
- Plant response rating, Morningglory [9, 13]: 85
- Plant response rating, Morningglory [9, 14]: 100
- Plant response rating, Morningglory [9, 15]: 40
- Plant response rating, Morningglory [9, 16]: 55
- Plant response rating, Morningglory [9, 17]: 65
- Morningglory plant response rating [9, 18]: 90
- Plant response rating, Wheat [10, 11]: 35
- Plant response rating, Wheat [10, 12]: 40
- Plant response rating, Wheat [10, 13]: 50
- Plant response rating, Wheat [10, 14]: 80
- Plant response rating, Wheat [10, 15]: 0
- Plant response rating, Wheat [10, 16]: 0
- Plant response rating, Wheat [10, 17]: 0
- Wheat plant response rating [10, 18]: 5
